Assay results: ChEMBL document CHEMBL1131745, “Novel C-ring analogues of 20(S)-camptothecin-part-2: synthesis and in vitro cytotoxicity of 5-C-substituted 20(S)-camptothecin analogues” (1999)

How the values were obtained:
Assay type in all cases: functional
SF-268 [1] = test: In vitro anti-cancer activity against SF 268(CNS) human tumor cell line
DU-145 = test: In vitro anti-cancer activity against DU-145 (Prostate) human tumor cell line
HOP-62 = test: In vitro anti-cancer activity against HOP 62(Lung) human tumor cell line
ACHN = test: In vitro anti-cancer activity against ACHN(Renal) human tumor cell line
NCI/ADR-RES [2] = test: In vitro anti-cancer activity against MCF-7/ADR (Breast) human tumor cell line
OVCAR-8 [3] = test: In vitro anti-cancer activity against OVCAR 8(Ovarian) human tumor cell line
UACC-62 = test: In vitro anti-cancer activity against UACC 62(Melanoma) human tumor cell line
SF-268 [4] = test: In vitro anti-cancer activity against SF 268(CNS) human tumor cell lines
OVCAR-8 [5] = test: In vitro anti-cancer activity against OVCAR 8(Ovarian) human tumor cell lines
NCI/ADR-RES [6] = test: In vitro anti-cancer activity against MCF-7/ADR (Breast) human tumor cell lines

| GI50 (OVCAR-8 [3]) | Structure (SMILES) | GI50 (SF-268 [1]) | GI50 (DU-145) | GI50 (HOP-62) | GI50 (ACHN) | GI50 (NCI/ADR-RES [2]) | GI50 (UACC-62) | GI50 (SF-268 [4]) | GI50 (OVCAR-8 [5]) | GI50 (NCI/ADR-RES [6]) |
| --- | --- | --- | --- | --- | --- | --- | --- | --- | --- | --- |
| 0.2 µM | CC[C@@]1(O)C(=O)OCc2c1cc1n(c2=O)Cc2cc3c(CN(C)C)c(O)ccc3nc2-1 [TOPOTECAN] | 0.08 µM | 0.04 µM | 0.05 µM | 0.04 µM | 0.07 µM | 0.03 µM | – | – | – |
| – | CC[C@@]1(O)C(=O)OCc2c1cc1n(c2=O)C(CC(C)=O)c2cc3ccccc3nc2-1 (stereo not given in full) | – | 3.92 µM | – | 3.03 µM | – | 3.54 µM | 7.15 µM | 7.39 µM | 3.88 µM |
| – | CC[C@@]1(O)C(=O)OCc2c1cc1n(c2=O)C(CC(=O)OC)c2cc3c(O)cccc3nc2-1 (stereo not given in full) | – | 0.6 µM | 2.09 µM | 0.44 µM | – | 1.72 µM | 2.32 µM | 1.72 µM | – |
| – | CC[C@@]1(O)C(=O)OCc2c1cc1n(c2=O)C(CC(N)=O)c2cc3ccccc3nc2-1 (stereo not given in full) | – | 12 µM | > 30 µM | 16 µM | – | 16 µM | 29 µM | 20 µM | – |
| – | CC[C@@]1(O)C(=O)OCc2c1cc1n(c2=O)C(CC(=O)OCC(F)(F)F)c2cc3ccccc3nc2-1 (stereo not given in full) | – | 0.28 µM | 0.13 µM | 0.17 µM | – | 0.3 µM | 0.14 µM | 1.12 µM | 0.5 µM |
| – | CC[C@@]1(O)C(=O)OCc2c1cc1n(c2=O)C(CC(=O)OC)c2cc3cc([N+](=O)[O-])ccc3nc2-1 (stereo not given in full) | – | 8.51 µM | 5.25 µM | 4.61 µM | – | 4.04 µM | 26.2 µM | 12.6 µM | – |
| – | CC[C@@]1(O)C(=O)OCc2c1cc1n(c2=O)C(CC(=O)N2CCCCC2)c2cc3ccccc3nc2-1 (stereo not given in full) | – | 0.32 µM | 0.53 µM | 0.34 µM | – | 0.33 µM | 0.65 µM | 3.57 µM | 3.03 µM |
| – | CC[C@@]1(O)C(=O)OCc2c1cc1n(c2=O)C(CC(=O)OCCF)c2cc3ccccc3nc2-1 (stereo not given in full) | – | 0.1 µM | > 30 µM | 0.08 µM | – | 0.2 µM | 0.05 µM | 0.04 µM | 6 µM |
| – | CC[C@@]1(O)C(=O)OCc2c1cc1n(c2=O)C(CC(C)=O)c2cc3c(O)cccc3nc2-1 (stereo not given in full) | – | 2 µM | 4 µM | 1 µM | – | 7.5 µM | 4 µM | 3.5 µM | 5 µM |
| – | CC[C@@]1(O)C(=O)OCc2c1cc1n(c2=O)C(CC(=O)N2CCCC2)c2cc3ccccc3nc2-1 (stereo not given in full) | – | 0.45 µM | 0.29 µM | 0.21 µM | – | 0.41 µM | – | 0.76 µM | 0.79 µM |
| – | CC[C@@]1(O)C(=O)OCc2c1cc1n(c2=O)C(CC(=O)OC)c2cc3ccccc3nc2-1 (stereo not given in full) | – | 15.5 µM | – | 5.29 µM | – | 6.44 µM | 18.6 µM | 16.3 µM | 7.2 µM |
| – | CC[C@@]1(O)C(=O)OCc2c1cc1n(c2=O)C(CC(C)=O)c2cc3cc([N+](=O)[O-])ccc3nc2-1 (stereo not given in full) | – | 0.28 µM | 0.13 µM | 0.17 µM | – | 0.3 µM | 0.14 µM | 1.12 µM | 0.5 µM |
| – | CC[C@@]1(O)C(=O)OCc2c1cc1n(c2=O)C(CC(=O)OCCO)c2cc3ccccc3nc2-1 (stereo not given in full) | – | 1 µM | > 30 µM | 10 µM | – | 0.2 µM | 1 µM | 0.25 µM | 6 µM |
